This is an account of results in patent publication US20230374015A1, “INHIBITORS OF FIBROBLAST GROWTH FACTOR RECEPTOR KINASES” (Kinnate Biopharma Inc., priority 2020, published 2023).

For orientation: IC50 means the concentration that gives 50% inhibition.

Assay [1] addresses T1, FGFR2 (Homo sapiens, UniProt P21802). The experiment in a line: FGFR2 Kinase Protocol - Condition 2 (Reaction Biology HotSpot radiometric kinase assay, no preincubation). Type of assay: biochemical. Particulars: poly[Glu:Tyr] (4:1) 0.2 mg/ml, ATP 100 microM, 2 hr room temperature. The essentials: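 Radiometric HotSpot format: FGFR2 (wildtype or V564F) with poly[Glu:Tyr] (4:1) at 0.2 mg/ml in HEPES pH 7.5 buffer with 1% DMSO; ATP plus [γ33P]ATP at 100 µM total, added without preincubation. Reactions ran 2 hr at room temperature, then filter-bound. IC50 from 10-dose, 3-fold series versus DMSO control.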

Assay [2] has as its target T1, FGFR2. The experiment in a line: FGFR2 Kinase Protocol - Condition 1 (Reaction Biology HotSpot radiometric kinase assay). It counts as biochemical. Particulars: 20-min incubation of compound with kinase before ATP; poly[Glu:Tyr] (4:1) 0.2 mg/ml; ATP 100 micromolar; 2 hr room temperature. The protocol:
Example 1: FGFR2 Kinase Protocol—Condition 1
The Reaction Biology HotSpot assay platform (http://www.reactionbiology.com) was used to measure kinase/inhibitor interactions as described previously (Anastassiadis et al., 2011). In brief, for each reaction, kinase and substrate were mixed in a buffer containing 20 mM HEPES (pH 7.5), 10 mM MgCl2, 1 mM EGTA, 0.02% Brij35, 0.02 mg/mL BSA, 0.1 mM Na3VO4, 2 mM DTT, and 1% DMSO. All compounds were in powder form and freshly solubilized in DMSO for assays. Compounds were then added to each reaction mixture via acoustic dispense using an ECHO 550 nanoliter dispenser. For Human FGFR2 wildtype testing, a peptide substrate, poly[Glu:Tyr] (4:1) was used to promote the reaction at a concentration of 0.2 mg/ml. For Human FGFR2 (V564F) testing, a peptide substrate, poly[Glu:Tyr] (4:1) was used to promote the reaction at a concentration of 0.2 mg/ml. ATP concentration for all assays was maintained at 100 micromolar. Compounds were tested in 10-dose IC50 mode with a 3-fold serial dilution. After a 20-min incubation, ATP (Sigma-Aldrich, St. Louis, MO 63178) and [g33P] ATP (specific activity 10 microCi/microliter) purchased at PerkinElmer (Boston, MA, 02118 Cat #BLU 003H250UC) were added at a final total concentration of […]. Reactions were carried out at room temperature for 2 hr and spotted onto P81 ion exchange cellulose chromatography paper (Reaction Biology). Filter paper was washed in 0.75% phosphoric acid to remove unincorporated ATP. The percent remaining kinase activity relative to a vehicle-containing (DMSO) kinase reaction was calculated for each kinase/inhibitor pair. IC50 values were calculated using Dotmatics Knowledge Solutions Studies curve fitting (Dotmatics, Bishops Stortford, UK, CM23).

T1 sequence (P21802 22-821): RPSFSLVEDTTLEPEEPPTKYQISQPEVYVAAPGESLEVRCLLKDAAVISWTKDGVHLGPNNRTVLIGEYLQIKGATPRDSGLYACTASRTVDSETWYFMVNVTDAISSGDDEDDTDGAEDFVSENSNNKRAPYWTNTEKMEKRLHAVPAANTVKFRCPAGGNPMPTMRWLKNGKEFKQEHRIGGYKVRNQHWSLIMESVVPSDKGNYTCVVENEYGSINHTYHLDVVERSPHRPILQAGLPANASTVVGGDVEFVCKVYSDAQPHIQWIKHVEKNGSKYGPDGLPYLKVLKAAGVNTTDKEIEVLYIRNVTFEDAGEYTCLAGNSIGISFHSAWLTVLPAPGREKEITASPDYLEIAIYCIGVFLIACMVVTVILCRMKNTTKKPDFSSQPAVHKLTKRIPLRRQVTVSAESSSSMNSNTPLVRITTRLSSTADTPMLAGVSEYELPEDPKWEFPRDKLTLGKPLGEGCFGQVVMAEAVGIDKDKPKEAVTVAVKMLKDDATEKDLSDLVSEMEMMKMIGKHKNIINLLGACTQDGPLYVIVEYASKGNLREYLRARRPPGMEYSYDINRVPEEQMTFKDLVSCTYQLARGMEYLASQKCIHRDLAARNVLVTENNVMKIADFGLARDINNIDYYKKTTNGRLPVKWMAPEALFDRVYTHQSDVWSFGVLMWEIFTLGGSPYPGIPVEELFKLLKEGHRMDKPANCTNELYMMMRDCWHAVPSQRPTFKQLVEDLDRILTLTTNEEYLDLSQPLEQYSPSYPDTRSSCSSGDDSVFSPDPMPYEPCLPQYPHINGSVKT

With `C=CC(=O)N1C[C@@H](n2cc(C#Cc3ccc4c(c3)nc(C)n4C)c3c(N)nccc32)C[C@@H]1COC` [Example 29, 1-((2R,4S)-4-(4-amino-3-((1,2-dimethyl-1H-benzo[d]imidazol-5-yl)ethynyl)-1H-pyrrolo[3,2-c]pyridin-1-yl)-2-(methoxymethyl)pyrrolidin-1-yl)prop-2-en-1-one], the IC50 on FGFR2 [1] is 100 to 1000 nM; against FGFR2 [2] it was ≤ 100 nM.
The corresponding values for `C=CC(=O)N1C[C@@H](n2nc(C#Cc3ccc4c(c3)nc(C)n4C)c3c(N)ncnc32)C[C@@H]1COC` [Example 3, 1-((2R,4S)-4-(4-amino-3-((1,2-dimethyl-1H-benzo[d]imidazol-5-yl)ethynyl)-1H-pyrazolo[3,4-d]pyrimidin-1-yl)-2-(methoxymethyl)pyrrolidin-1-yl)prop-2-en-1-one] are ≤ 100 nM and ≤ 100 nM.
The matching figures for `C=CC(=O)N1C[C@@H](n2cc(C#Cc3ccc4c(c3)ncn4CC)c3c(N)nccc32)C[C@@H]1COC` [Example 31, 1-((2R,4S)-4-(4-amino-3-((1-ethyl-1H-benzo[d]imidazol-5-yl)ethynyl)-1H-pyrrolo[3,2-c]pyridin-1-yl)-2-(methoxymethyl)pyrrolidin-1-yl)prop-2-en-1-one]: 100 to 1000 nM and ≤ 100 nM.
For `C=CC(=O)N1C[C@@H](n2cc(C#Cc3ccc4c(c3)ncn4C3CC3)c3c(N)nccc32)C[C@@H]1COC` [Example 30, 1-((2R,4S)-4-(4-amino-3-((1-cyclopropyl-1H-benzo[d]imidazol-5-yl)ethynyl)-1H-pyrrolo[3,2-c]pyridin-1-yl)-2-(methoxymethyl)pyrrolidin-1-yl)prop-2-en-1-one], the IC50 against FGFR2 [1] was 100 to 1000 nM; on FGFR2 [2], ≤ 100 nM.
The corresponding values for `C=CC(=O)N1C[C@@H](n2nc(C#Cc3c(F)cc4c(nc(C)n4C)c3F)c3c(N)ncnc32)C[C@@H]1COC` [Example 12, 1-((2R,4S)-4-(4-amino-3-((4,6-difluoro-1,2-dimethyl-1H-benzo[d]imidazol-5-yl)ethynyl)-1H-pyrazolo[3,4-d]pyrimidin-1-yl)-2-(methoxymethyl)pyrrolidin-1-yl)prop-2-en-1-one] are ≤ 100 nM and ≤ 100 nM.
Take `C=CC(=O)N1C[C@@H](n2nc(C#Cc3ccc4[nH]c(C)nc4c3)c3c(N)ncnc32)C[C@@H]1COC` [Example 1, 1-((2R,4S)-4-(4-amino-3-((2-methyl-1H-benzo[d]imidazol-5-yl)ethynyl)-1H-pyrazolo[3,4-d]pyrimidin-1-yl)-2-(methoxymethyl)pyrrolidin-1-yl)prop-2-en-1-one]: the IC50 against FGFR2 [2] was ≤ 100 nM.
The same measure, in the same setting: in the case of `C=CC(=O)N1C[C@@H](n2nc(C#Cc3ccc4c(c3)ncn4C)c3c(N)nccc32)C[C@@H]1COC` [Example 19, 1-((2R,4S)-4-(4-amino-3-((1-methyl-1H-benzo[d]imidazol-5-yl)ethynyl)-1H-pyrazolo[4,3-c]pyridin-1-yl)-2-(methoxymethyl)pyrrolidin-1-yl)prop-2-en-1-one] it was ≤ 100 nM; in that of `C=CC(=O)N1C[C@@H](n2nc(C#Cc3ccc4c(c3)nc(C)n4CC)c3c(N)ncnc32)C[C@@H]1COC` [Example 20, 1-((2R,4S)-4-(4-amino-3-((1-ethyl-2-methyl-1H-benzo[d]imidazol-5-yl)ethynyl)-1H-pyrazolo[3,4-d]pyrimidin-1-yl)-2-(methoxymethyl)pyrrolidin-1-yl)prop-2-en-1-one], ≤ 100 nM.
Regarding `C=CC(=O)N1C[C@@H](n2nc(C#Cc3c(F)cc4c(nc(C)n4C)c3F)c3c(N)nccc32)C[C@@H]1COC` [Example 16, 1-((2R,4S)-4-(4-amino-3-((4,6-difluoro-1,2-dimethyl-1H-benzo[d]imidazol-5-yl)ethynyl)-1H-pyrazolo[4,3-c]pyridin-1-yl)-2-(methoxymethyl)pyrrolidin-1-yl)prop-2-en-1-one], the IC50 against FGFR2 [1] and against FGFR2 [2] was ≤ 100 nM in each case.
As for `C=CC(=O)N1C[C@@H](n2nc(C#Cc3c(F)cc4c(ncn4C)c3F)c3c(N)nccc32)C[C@@H]1COC` [Example 26, 1-((2R,4S)-4-(4-amino-3-((4,6-difluoro-1-methyl-1H-benzo[d]imidazol-5-yl)ethynyl)-1H-pyrazolo[4,3-c]pyridin-1-yl)-2-(methoxymethyl)pyrrolidin-1-yl)prop-2-en-1-one], on FGFR2 [2], the IC50 is ≤ 100 nM.
Consider `C=CC(=O)N1C[C@@H](n2nc(C#Cc3ccc4[nH]nnc4c3)c3c(N)ncnc32)C[C@@H]1COC` [Example 10, 1-((2R,4S)-4-(3-((1H-benzo[d][1,2,3]triazol-5-yl)ethynyl)-4-amino-1H-pyrazolo[3,4-d]pyrimidin-1-yl)-2-(methoxymethyl)pyrrolidin-1-yl)prop-2-en-1-one], for which the IC50 on FGFR2 [2] was ≤ 100 nM.
Turning to `C=CC(=O)N1C[C@@H](n2cc(C#Cc3ccc4nc(C)n(C)c4c3)c3c(N)nccc32)C[C@@H]1COC` [Example 28], the half-maximal inhibitory concentration (IC50) against FGFR2 [1] and on FGFR2 [2] was 1000 to 10000 nM throughout.
Take `C=CC(=O)N1C[C@@H](n2cc(C#Cc3ccc4c(c3)ncn4C)c3c(N)nccc32)C[C@@H]1COC` [Example 27, 1-((2R,4S)-4-(4-amino-3-((1-methyl-1H-benzo[d]imidazol-5-yl)ethynyl)-1H-pyrrolo[3,2-c]pyridin-1-yl)-2-(methoxymethyl)pyrrolidin-1-yl)prop-2-en-1-one]: the IC50 against FGFR2 [2] is ≤ 100 nM.
